PubChem BioAssay AID1259407 (Chemical Carcinogenesis Research Information System (CCRIS), 2018)
Active and inactive are the calls of the source. No rule for the calls is given here.

Test system: CCRIS mutagenicity, Ames/micronucleus/aberration tests
Experiment: CCRIS mutagenicity studies

Measured: mutagenic call

COc1ccc2c(c1)[C@H]1CCCC[C@@H]1[C@@H]1O[C@H]21
inactive: Test System: AMES SALMONELLA TYPHIMURIUM, Strain/Indicator: TA98, Metabolic Activation: NONE, Method: STANDARD PLATE inactive; negative | Test System: AMES SALMONELLA TYPHIMURIUM, Strain/Indicator: TA100, Metabolic Activation: NONE, Method: STANDARD PLATE inactive; negative

O=[N+]([O-])c1cccc2c([N+](=O)[O-])cccc12
inactive: Test System: AMES SALMONELLA TYPHIMURIUM, Strain/Indicator: TA1535, Metabolic Activation: NONE, Method: PREINCUBATION inactive; negative | Test System: AMES SALMONELLA TYPHIMURIUM, Strain/Indicator: TA1535, Metabolic Activation: RAT LIVER S-9, PHENOBARBITAL AND BETA-NAPHTHOFLAVONE, Method: PREINCUBATION inactive; negative | Test System: E.COLI, Strain/Indicator: WP2UVRA, Metabolic Activation: NONE, Method: PREINCUBATION inactive; negative
active: End Point: IN VITRO CHROMOSOMAL ABERRATIONS, Test System: CHL CELLS, Metabolic Activation: RAT, LIVER, S-9, SODIUM PHENOBARBITAL AND 5,6-BENZOFLAVONE active; positive (structural changes) | Test System: AMES SALMONELLA TYPHIMURIUM, Strain/Indicator: TA98, Metabolic Activation: HAMSTER, LIVER, S-9, AROCLOR 1254 (30%), Method: PREINCUBATION active; positive | Test System: AMES SALMONELLA TYPHIMURIUM, Strain/Indicator: TA98, Metabolic Activation: NONE, Method: PREINCUBATION active; positive | Test System: AMES SALMONELLA TYPHIMURIUM, Strain/Indicator: TA98, Metabolic Activation: RAT LIVER S-9, PHENOBARBITAL AND BETA-NAPHTHOFLAVONE, Method: PREINCUBATION active; positive | Test System: AMES SALMONELLA TYPHIMURIUM, Strain/Indicator: TA98, Metabolic Activation: RAT, LIVER, S-9, AROCLOR 1254 (30%), Method: PREINCUBATION active; positive | Test System: AMES SALMONELLA TYPHIMURIUM, Strain/Indicator: TA100, Metabolic Activation: HAMSTER, LIVER, S-9, AROCLOR 1254 (30%), Method: PREINCUBATION active; positive | Test System: AMES SALMONELLA TYPHIMURIUM, Strain/Indicator: TA100, Metabolic Activation: NONE, Method: PREINCUBATION active; positive | Test System: AMES SALMONELLA TYPHIMURIUM, Strain/Indicator: TA100, Metabolic Activation: RAT LIVER S-9, PHENOBARBITAL AND BETA-NAPHTHOFLAVONE, Method: PREINCUBATION active; positive | Test System: AMES SALMONELLA TYPHIMURIUM, Strain/Indicator: TA100, Metabolic Activation: RAT, LIVER, S-9, AROCLOR 1254 (30%), Method: PREINCUBATION active; positive | Test System: AMES SALMONELLA TYPHIMURIUM, Strain/Indicator: TA1537, Metabolic Activation: NONE, Method: PREINCUBATION active; positive | Test System: AMES SALMONELLA TYPHIMURIUM, Strain/Indicator: TA1537, Metabolic Activation: RAT LIVER S-9, PHENOBARBITAL AND BETA-NAPHTHOFLAVONE, Method: PREINCUBATION active; positive | Test System: AMES SALMONELLA TYPHIMURIUM, Strain/Indicator: TA1538, Metabolic Activation: NONE, Method: PREINCUBATION active; positive | Test System: AMES SALMONELLA TYPHIMURIUM, Strain/Indicator: TA1538, Metabolic Activation: RAT LIVER S-9, PHENOBARBITAL AND BETA-NAPHTHOFLAVONE, Method: PREINCUBATION active; positive | Test System: E.COLI, Strain/Indicator: WP2UVRA, Metabolic Activation: RAT LIVER S-9, PHENOBARBITAL AND BETA-NAPHTHOFLAVONE, Method: PREINCUBATION active; positive

CCCCN(N=O)/C(C=O)=N/O
active: Test System: AMES SALMONELLA TYPHIMURIUM, Strain/Indicator: TA1535, Metabolic Activation: NONE, Method: STANDARD PLATE active; positive | Test System: E. COLI, Strain/Indicator: WP2 (HCR-), Metabolic Activation: NONE, Method: STANDARD PLATE active; positive

COc1cc(OC)c2c(=O)c3c(O)ccc(OC)c3oc2c1
active: Test System: AMES SALMONELLA TYPHIMURIUM, Strain/Indicator: TA97, Metabolic Activation: RAT, LIVER, S-9, PHENOBARBITAL AND 5,6-BENZOFLAVONE, Method: PREINCUBATION active; positive | Test System: AMES SALMONELLA TYPHIMURIUM, Strain/Indicator: TA2637, Metabolic Activation: RAT, LIVER, S-9, PHENOBARBITAL AND 5,6-BENZOFLAVONE, Method: PREINCUBATION active; positive
inactive: Test System: AMES SALMONELLA TYPHIMURIUM, Strain/Indicator: TA97, Metabolic Activation: NONE, Method: PREINCUBATION inactive; negative | Test System: AMES SALMONELLA TYPHIMURIUM, Strain/Indicator: TA98, Metabolic Activation: RAT, LIVER, S-9, PHENOBARBITAL AND 5,6-BENZOFLAVONE, Method: PREINCUBATION inactive; negative | Test System: AMES SALMONELLA TYPHIMURIUM, Strain/Indicator: TA100, Metabolic Activation: RAT, LIVER, S-9, PHENOBARBITAL AND 5,6-BENZOFLAVONE, Method: PREINCUBATION inactive; negative
